Experimental data taken from ChEMBL document CHEMBL4680201, “Design, synthesis, and pharmacological evaluation of 4- or 6-phenyl-pyrimidine derivatives as novel and selective Janus kinase 3 inhibitors” (Eur J Med Chem, 2020).
pIC50: −log10 of the molar value. Active and inactive are the calls of the source. The rule behind the calls is not given here.

Legend:
[1] = AUC (0 to t) in ICR mouse at 10 mg/kg, iv administered as single dose by LC-MS/MS analysis; format: ADME, organism-based; parameters: dose 10 mg/kg; details: in vivo
[2] = biological target: TEK (Angiopoietin-1 receptor) (Homo sapiens, UniProt Q02763); assay: Inhibition of recombinant human GST-tagged TEK (817 to 1101 residues) expressed in baculovirus expression system at 100 nM using Tyr 05 as substrate incubated for 1 hr in presence of ATP by Z'-LYTE assay relative to control; details: probe Tyr 05
[3] = biological target: T1, ITK (Tyrosine-protein kinase ITK/TSK) (Homo sapiens, UniProt Q08881); assay: Inhibition of recombinant human GST-tagged full length ITK expressed in baculovirus expression system at 100 nM using Tyr01 peptide as substrate incubated for 1 hr by Z'lyte assay relative to control; details: probe Tyr01 peptide
T1 sequence (Q08881 whole entry): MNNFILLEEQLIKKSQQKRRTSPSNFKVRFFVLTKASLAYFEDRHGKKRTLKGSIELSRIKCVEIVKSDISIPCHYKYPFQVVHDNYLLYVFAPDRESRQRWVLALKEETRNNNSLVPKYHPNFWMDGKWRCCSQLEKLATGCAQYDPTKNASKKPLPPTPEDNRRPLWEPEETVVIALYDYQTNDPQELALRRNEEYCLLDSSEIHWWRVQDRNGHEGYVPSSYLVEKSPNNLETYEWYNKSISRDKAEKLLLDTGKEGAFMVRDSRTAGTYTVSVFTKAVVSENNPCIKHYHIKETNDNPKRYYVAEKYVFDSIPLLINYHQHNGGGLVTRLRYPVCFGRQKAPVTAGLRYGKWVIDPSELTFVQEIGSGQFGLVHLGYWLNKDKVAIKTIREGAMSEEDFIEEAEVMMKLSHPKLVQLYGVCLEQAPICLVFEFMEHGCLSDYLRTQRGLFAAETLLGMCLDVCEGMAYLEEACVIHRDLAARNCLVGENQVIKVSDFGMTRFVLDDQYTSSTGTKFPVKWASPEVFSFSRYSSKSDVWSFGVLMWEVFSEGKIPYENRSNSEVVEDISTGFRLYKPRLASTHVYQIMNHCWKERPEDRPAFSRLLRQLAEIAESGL

[4] = biological target: ERBB4 (Receptor tyrosine-protein kinase erbB-4) (Homo sapiens, UniProt Q15303); assay: Inhibition of recombinant human N-terminal GST-tagged ERBB4 catalytic domain (708 to 993 residues) expressed in baculovirus expression system at 100 nM using tyrosine-1 peptide as substrate incubated for 60 mins in presence of ATP by Z'-LYTE assay relative to control; details: probe tyrosine-1 peptide
[5] = Terminal half life in ICR mouse at 30 mg/kg, po administered as single dose via gavage by LC-MS/MS analysis; format: ADME, organism-based; details: in vivo, read-out: beta t1/2 (converted)
[6] = Cmax in ICR mouse at 10 mg/kg, iv administered as single dose by LC-MS/MS analysis; format: ADME, organism-based; parameters: route intravenous, dose 10 mg/kg; details: in vivo
[7] = AUC (0 to infinity) in ICR mouse at 30 mg/kg, po administered as single dose via gavage by LC-MS/MS analysis; format: ADME, organism-based; parameters: time infinity, route oral, dose 30 mg/kg; details: in vivo
[8] = biological target: BLK (Tyrosine-protein kinase Blk) (Homo sapiens, UniProt P51451); assay: Inhibition of recombinant human His-tagged full length BLK expressed in baculovirus expression system at 100 nM using Tyr01 peptide as substrate incubated for 1 hr in presence of ATP by Z'-LYTE assay relative to control; details: probe Tyr01 peptide
[9] = Cmax in ICR mouse at 30 mg/kg, po administered as single dose via gavage by LC-MS/MS analysis; format: ADME, organism-based; parameters: route oral, dose 30 mg/kg; details: in vivo
[10] = Cytotoxicity against resting mouse T cells assessed as reduction in cell viability at 10 uM measured after 72 hrs by MTS assay; format: cell-based
Mus musculus = assay: Immunosuppressive activity in Balb/c mouse model of oxazolone-induced delayed type hypersensitivity assessed as reduction in neutrophil leukocyte infiltration at 30 mg/kg, po measured after 7 days by H and E staining based histopathological analysis; format: functional, organism-based; details: time 7.0 day
[11] = biological target: T2, Tyrosine-protein kinase JAK3 (Mus musculus) (UniProt Q62137); assay: Inhibition of JAK3 in anti-CD3/-CD28 coated mouse T cells assessed as reduction in IL2-induced STAT5 phosphorylation at 10 uM preincubated for 1 hr followed by IL2 stimulation and measured after 30 mins by Western blot analysis; details: T cell
T2 sequence (whole entry): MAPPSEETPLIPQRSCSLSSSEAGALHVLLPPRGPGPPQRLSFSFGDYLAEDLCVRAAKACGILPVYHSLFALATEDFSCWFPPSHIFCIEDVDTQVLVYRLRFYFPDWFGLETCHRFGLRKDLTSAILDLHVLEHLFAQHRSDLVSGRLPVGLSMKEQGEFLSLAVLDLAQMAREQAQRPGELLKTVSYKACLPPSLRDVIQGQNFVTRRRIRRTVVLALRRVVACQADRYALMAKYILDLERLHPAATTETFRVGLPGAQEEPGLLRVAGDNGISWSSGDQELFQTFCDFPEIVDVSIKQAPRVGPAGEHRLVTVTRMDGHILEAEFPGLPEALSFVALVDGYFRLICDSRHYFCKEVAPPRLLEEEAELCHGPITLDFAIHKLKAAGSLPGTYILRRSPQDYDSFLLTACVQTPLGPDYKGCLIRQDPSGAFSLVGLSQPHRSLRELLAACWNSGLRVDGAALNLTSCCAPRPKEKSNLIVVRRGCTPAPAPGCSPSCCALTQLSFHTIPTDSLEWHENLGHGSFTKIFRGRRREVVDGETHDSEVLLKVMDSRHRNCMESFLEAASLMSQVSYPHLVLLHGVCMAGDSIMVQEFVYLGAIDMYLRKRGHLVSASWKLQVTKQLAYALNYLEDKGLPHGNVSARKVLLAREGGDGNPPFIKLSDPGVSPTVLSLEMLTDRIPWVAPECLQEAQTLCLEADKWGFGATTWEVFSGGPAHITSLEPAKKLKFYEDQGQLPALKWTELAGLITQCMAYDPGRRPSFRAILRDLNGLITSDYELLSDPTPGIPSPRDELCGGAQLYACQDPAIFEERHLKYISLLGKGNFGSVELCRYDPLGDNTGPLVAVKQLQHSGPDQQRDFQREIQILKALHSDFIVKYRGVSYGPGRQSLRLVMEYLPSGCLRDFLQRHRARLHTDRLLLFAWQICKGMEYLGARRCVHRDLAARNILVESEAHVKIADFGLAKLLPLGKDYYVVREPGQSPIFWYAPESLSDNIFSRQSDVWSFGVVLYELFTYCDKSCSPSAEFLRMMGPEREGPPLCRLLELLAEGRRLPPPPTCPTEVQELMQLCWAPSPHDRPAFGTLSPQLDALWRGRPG

[12] = biological target: Non-receptor tyrosine-protein kinase TYK2 (Homo sapiens, UniProt P29597); assay: Inhibition of recombinant human N-terminal GST-tagged TYK2 cytoplasmic domain (833 to 1187 residues) expressed in baculovirus expression system using TK-substrate-biotin preincubated for 5 mins followed by substrate addition and measured after 30 mins by HTRF assay
RAW264.7 = assay: Cytotoxicity against mouse RAW264.7 cells assessed as reduction in cell viability at 10 uM measured after 72 hrs by MTS assay; format: cell-based; details: raw264.7, 72 h

Sequence of Non-receptor tyrosine-protein kinase TYK2 (P29597 whole entry, the tested form may be a part): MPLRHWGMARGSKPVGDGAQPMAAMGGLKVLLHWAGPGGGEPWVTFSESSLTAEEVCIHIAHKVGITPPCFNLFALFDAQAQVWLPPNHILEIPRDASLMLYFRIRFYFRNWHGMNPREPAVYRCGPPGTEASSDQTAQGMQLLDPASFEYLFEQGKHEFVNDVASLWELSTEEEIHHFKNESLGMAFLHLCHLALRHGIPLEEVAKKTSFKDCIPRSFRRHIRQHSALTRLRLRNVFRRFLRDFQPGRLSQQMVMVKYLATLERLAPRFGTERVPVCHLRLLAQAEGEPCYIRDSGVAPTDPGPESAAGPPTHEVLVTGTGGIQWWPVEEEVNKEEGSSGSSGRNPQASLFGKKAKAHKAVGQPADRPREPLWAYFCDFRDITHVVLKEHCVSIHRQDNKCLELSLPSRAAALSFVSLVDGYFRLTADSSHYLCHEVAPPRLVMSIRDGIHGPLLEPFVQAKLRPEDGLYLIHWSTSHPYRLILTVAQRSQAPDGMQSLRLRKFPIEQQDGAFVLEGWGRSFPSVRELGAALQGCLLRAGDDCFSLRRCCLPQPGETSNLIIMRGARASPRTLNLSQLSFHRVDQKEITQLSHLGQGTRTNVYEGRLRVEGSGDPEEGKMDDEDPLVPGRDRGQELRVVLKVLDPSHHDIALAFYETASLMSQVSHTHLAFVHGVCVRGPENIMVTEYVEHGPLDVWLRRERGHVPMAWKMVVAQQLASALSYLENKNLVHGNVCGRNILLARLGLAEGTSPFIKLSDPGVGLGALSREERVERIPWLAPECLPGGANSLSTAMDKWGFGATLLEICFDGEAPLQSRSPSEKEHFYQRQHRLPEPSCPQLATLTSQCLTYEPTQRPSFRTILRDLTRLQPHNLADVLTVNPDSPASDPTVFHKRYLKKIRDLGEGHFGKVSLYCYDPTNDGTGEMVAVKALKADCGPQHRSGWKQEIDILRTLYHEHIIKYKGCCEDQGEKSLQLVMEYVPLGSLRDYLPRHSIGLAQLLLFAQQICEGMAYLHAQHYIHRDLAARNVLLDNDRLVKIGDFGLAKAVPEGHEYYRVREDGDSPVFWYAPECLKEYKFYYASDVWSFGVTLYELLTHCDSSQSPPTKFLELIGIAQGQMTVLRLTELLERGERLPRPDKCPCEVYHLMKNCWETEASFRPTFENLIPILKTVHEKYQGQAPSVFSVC
Sequence of BLK (Tyrosine-protein kinase Blk) (P51451 whole entry): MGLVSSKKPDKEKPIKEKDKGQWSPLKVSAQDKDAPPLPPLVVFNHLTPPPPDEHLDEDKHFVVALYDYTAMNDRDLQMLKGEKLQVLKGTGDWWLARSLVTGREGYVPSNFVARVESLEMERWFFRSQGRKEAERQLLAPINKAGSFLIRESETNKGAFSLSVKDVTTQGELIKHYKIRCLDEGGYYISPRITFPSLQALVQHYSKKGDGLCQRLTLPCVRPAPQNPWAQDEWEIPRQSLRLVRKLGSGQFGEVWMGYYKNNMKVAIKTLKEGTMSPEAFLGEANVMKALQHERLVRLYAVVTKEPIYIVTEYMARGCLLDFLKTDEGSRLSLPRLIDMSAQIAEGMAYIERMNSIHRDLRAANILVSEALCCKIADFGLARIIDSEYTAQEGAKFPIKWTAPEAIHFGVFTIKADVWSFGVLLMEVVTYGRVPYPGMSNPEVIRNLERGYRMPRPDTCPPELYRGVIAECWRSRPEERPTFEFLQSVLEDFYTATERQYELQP
Sequence of TEK (Angiopoietin-1 receptor) (Q02763 whole entry, the tested form may be a part): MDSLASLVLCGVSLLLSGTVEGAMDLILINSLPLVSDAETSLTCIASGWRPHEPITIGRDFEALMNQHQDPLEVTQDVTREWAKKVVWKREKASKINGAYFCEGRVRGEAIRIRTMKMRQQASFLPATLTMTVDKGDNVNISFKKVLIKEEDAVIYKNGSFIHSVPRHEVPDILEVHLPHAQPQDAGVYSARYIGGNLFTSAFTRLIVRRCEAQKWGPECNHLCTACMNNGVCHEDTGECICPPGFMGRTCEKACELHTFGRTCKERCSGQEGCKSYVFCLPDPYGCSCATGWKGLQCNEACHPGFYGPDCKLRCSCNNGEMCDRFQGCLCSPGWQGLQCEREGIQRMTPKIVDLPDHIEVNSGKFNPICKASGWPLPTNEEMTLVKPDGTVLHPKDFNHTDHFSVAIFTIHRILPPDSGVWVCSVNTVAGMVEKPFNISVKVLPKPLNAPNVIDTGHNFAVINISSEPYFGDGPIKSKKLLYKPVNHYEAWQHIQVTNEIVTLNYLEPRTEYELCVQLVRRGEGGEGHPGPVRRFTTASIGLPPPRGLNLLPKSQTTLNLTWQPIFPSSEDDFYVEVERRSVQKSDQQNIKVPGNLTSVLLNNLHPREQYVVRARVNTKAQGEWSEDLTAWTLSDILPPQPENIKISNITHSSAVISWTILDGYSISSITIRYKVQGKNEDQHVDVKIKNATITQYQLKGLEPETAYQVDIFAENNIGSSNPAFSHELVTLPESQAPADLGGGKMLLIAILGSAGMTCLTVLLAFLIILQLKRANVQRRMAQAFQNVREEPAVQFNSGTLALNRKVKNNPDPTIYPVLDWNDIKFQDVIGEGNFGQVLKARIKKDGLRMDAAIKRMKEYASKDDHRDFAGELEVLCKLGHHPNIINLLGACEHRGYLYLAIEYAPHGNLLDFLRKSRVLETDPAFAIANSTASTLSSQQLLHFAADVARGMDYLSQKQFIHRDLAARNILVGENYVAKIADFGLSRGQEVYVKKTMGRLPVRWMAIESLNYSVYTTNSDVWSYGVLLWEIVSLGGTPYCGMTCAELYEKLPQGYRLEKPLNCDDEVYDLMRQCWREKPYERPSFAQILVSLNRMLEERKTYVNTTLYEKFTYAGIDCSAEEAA
Sequence of ERBB4 (Receptor tyrosine-protein kinase erbB-4) (Q15303 whole entry, the tested form may be a part): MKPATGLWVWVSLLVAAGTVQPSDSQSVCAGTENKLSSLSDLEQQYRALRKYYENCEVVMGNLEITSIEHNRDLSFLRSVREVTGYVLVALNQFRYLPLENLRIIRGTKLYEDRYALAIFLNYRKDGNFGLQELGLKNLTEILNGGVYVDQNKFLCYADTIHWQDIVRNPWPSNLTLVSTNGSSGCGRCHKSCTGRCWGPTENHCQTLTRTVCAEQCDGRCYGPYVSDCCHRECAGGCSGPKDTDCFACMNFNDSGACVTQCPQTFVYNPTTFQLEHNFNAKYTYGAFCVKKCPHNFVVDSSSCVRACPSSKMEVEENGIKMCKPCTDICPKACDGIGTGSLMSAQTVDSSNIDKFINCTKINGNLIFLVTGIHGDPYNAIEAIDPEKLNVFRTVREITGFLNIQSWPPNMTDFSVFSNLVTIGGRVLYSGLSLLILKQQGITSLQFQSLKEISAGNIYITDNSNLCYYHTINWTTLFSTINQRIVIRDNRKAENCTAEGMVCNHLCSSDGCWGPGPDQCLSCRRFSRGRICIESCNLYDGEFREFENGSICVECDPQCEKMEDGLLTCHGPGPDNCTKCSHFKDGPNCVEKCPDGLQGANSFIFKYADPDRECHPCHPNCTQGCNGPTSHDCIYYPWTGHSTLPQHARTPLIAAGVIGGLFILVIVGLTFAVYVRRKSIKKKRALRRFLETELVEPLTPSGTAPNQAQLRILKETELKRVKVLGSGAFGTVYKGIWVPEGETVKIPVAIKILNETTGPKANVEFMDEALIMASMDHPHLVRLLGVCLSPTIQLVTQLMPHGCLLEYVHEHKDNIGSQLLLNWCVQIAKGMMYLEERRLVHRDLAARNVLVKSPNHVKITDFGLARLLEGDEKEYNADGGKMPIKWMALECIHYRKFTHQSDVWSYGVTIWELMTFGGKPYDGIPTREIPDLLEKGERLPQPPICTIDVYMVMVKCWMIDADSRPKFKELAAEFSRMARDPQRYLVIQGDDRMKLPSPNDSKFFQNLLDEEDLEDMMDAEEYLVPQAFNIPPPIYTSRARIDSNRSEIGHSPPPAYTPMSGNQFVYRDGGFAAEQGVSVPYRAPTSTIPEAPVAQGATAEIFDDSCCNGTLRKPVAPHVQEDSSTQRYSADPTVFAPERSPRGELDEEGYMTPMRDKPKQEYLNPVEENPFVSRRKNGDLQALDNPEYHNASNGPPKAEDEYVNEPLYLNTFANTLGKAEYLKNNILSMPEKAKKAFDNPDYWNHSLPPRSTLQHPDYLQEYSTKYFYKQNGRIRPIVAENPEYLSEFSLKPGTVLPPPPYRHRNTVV

Work on C=CC(=O)Nc1ccc(-c2ccnc(Nc3ccc(N4CCOCC4)cc3)n2)cc1 yielded an AUC(0-t) [1] of 1.24 µg·h/mL, an inhibition at 1 h, 0.1 µM [2] of 29.5% and an inhibition at 1 h, 0.1 µM [3] of 2.3%. The inhibition at 1 h, 0.1 µM [4] was 8%, the half-life [5] was 1.52 h and the Cmax [6] was 8.76 µg/mL. The AUC [7] was 0.89712 µg·h/mL, the inhibition at 1 h, 0.1 µM [8] was 20.6% and the Cmax [9] was 2.01 µg/mL. The Activity [10] was “Non-Toxic”, the Activity (Mus musculus) was “Active” and the inhibition [11] was “Active”. For the same molecule, the pIC50 [12] was 5.56 and the Activity (RAW264.7) was “Non-Toxic”.
